Measurements taken from patent US9610287B2 (H. Lundbeck A/S, priority 2011, dated 2017).
Values belong to the molecule of their own block, whether it stands above or below them.

Tests used:
[1] = Elimination half life in human; settings: in vivo
[2] = biological target: D2 receptor (Homo sapiens, UniProt P14416); assay: PET study in healthy subjects, D2 receptor occupancy (11C-raclopride); type: in vivo; settings: read-out: D2 receptor occupancy in the putamen
[3] = system: rats; settings: fumarate salt; cited from earlier work
[4] = biological target: T1, D2 receptors (Rattus norvegicus, UniProt P61169); assay: In vivo binding to D2 receptors in rat brain ([3H]-raclopride); settings: sc, subcutaneous
T1 construct: the brain quickly removed and striatum and cerebellum dissected out and homogenized; from tissue; host or cells: striatum of male Wistar rats (in vivo)
T1 sequence (P61169 whole entry): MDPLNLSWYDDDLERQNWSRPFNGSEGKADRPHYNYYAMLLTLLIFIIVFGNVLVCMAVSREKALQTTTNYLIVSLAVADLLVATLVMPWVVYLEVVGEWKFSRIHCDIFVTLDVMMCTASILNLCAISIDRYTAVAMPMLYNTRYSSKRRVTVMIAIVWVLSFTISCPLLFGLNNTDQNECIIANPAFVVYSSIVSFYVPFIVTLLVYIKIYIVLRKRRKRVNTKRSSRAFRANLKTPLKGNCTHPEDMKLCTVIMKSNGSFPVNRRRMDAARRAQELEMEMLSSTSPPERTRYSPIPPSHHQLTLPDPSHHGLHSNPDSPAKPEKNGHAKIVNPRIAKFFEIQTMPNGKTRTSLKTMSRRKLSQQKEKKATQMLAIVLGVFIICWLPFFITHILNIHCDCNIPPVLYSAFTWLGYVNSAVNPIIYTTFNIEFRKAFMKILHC
Description: Description of In Vivo Binding to D2 Receptors in Rat Brain
In vivo binding is carried out according to Andersen et al (Eur J Pharmacol, (1987) 144:1-6) with a few modifications (Kapur S. et al, J Pharm Exp Ther, 2003, 305, 625-631). Briefly, 6 rats (male Wistar, 180-200 g) are treated with 20 mg/kg test compound subcutaneous 30 minutes before receiving 9.4 micro Ci [^3H]-raclopride intravenous via the tail vein.
15 minutes after the injection of the radio ligand the animals are killed by cervical dislocation, the brain quickly removed and striatum and cerebellum dissected out and homogenized in 5 mL (cerebellum in 20 mL) ice-cold buffer (50 mM K2PO4, pH 7.4). 1.0 mL of the homogenate is filtered through 0.1% PEI—soaked Whatman GF/C filters. This is completed within 60 seconds subsequent to the decapitation. Filters are washed 2 times with 5 mL ice-cold buffer and counted in a scintillation counter. A group of vehicle treated animals is used to determine [^3H]-raclopride total binding in striatum and non-specific binding in cerebellum. The homogenate is measured for protein content by the BCA protein determination assay (Smith P. K. et al (1985) Anal. Biochem., 150: 6-85).

[5] = system: rats; assay: Condition avoidance response (CAR) model in rats; type: in vivo, rat; settings: at very low levels of D2 receptor occupancy
[6] = system: schizophrenic patients; assay: Randomized, double-blind study of daily vs weekly dosing in schizophrenic patients, PANSS Total Score; type: in vivo, human
From the text: The study is a randomized, double-blind, parallel-group, exploratory study of safety, tolerability and PK of daily dosing vs weekly dosing of Compound (I) in schizophrenic patients.
The open-label period (OL_Period) is the period from start of open-label treatment (baseline) until stop of open-label treatment (at OL-withdrawal or randomisation to double-blind treatment, whichever occurs first).
The double-blind period (DB_Period) is the period from start of double-blind treatment (randomisation) until stop of double-blind treatment (at DB-withdrawal or completion, whichever occurs first), that is, the entire double-blind period including the PBO_Period.
The IMP dosing period (IMP_Period) is the period from start of open-label treatment (baseline) until stop of double-blind treatment (at withdrawal or completion, whichever occurs first), that is, the OL_Period plus the DB_Period.
A study was conducted with a study design as described in Example 2.

[7] = biological target: D1 receptor (Homo sapiens, UniProt P21728); assay: PET study in healthy subjects, D1 receptor occupancy (11C-SCH23390); type: in vivo; settings: read-out: D1 receptor occupancy in putamen
Chain of D1 receptor (P21728 whole entry): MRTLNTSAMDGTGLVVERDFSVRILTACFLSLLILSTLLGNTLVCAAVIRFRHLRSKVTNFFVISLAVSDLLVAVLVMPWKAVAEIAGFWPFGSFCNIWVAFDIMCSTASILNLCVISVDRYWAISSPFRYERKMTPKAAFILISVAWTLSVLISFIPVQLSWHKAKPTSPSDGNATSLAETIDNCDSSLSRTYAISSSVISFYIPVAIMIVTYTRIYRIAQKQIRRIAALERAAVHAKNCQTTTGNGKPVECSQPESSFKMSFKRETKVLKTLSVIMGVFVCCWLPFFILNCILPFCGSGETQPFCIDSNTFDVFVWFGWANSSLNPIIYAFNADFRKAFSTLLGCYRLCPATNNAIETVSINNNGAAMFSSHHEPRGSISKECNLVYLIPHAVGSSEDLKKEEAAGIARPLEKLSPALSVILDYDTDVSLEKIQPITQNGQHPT

[8] = 2 mg/day given daily for 18 days
[9] = 10 mg/day given daily for 18 days

Chain of D2 receptor (P14416 whole entry): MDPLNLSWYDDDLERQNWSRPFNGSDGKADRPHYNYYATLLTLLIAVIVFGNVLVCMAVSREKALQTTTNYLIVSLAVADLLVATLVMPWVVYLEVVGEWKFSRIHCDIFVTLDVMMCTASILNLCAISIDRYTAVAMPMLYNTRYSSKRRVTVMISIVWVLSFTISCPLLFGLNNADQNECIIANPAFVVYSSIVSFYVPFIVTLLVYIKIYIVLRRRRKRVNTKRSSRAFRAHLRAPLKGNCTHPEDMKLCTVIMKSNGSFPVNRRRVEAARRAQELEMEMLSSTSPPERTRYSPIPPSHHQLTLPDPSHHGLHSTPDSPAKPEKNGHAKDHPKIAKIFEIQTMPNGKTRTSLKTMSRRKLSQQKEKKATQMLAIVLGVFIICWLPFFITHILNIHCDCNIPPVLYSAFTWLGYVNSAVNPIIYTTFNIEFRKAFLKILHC

half-life [1]: 300 to 400 h
SMILES: CC1(C)CN([C@@H]2C[C@@H](c3ccccc3)c3ccc(Cl)cc32)CCN1 (relative stereo) [Compound (II), trans-1(6-chloro-3-phenyl-indan-1-yl)-3,3-dimethyl-piperazine]

receptor occupancy at 2 mg [2, 8]: 11%
receptor occupancy at 10 mg [2, 9]: 43%
ED50 [4]: 4.1 mg/kg
half-life [1]: ~150 h
receptor occupancy at 2 mg [7, 8]: 32%
receptor occupancy at 10 mg [7, 9]: 69%
SMILES: CN1CCN([C@@H]2C[C@@H](c3ccccc3)c3ccc(Cl)cc32)CC1(C)C [Compound (I), 4-((1R,3S)-6-chloro-3-phenyl-indan-1-yl)-1,2,2-trimethyl-piperazine]
induction of catalepsy [3]: does not induce catalepsy
antipsychotic activity in CAR model [5]: possesses antipsychotic activity
Mean (change in PANSS) Total Score from randomization ([6]; 10 mg/day, study day 29): 1.55
Mean (change in PANSS) Total Score from randomization ([6]; 10 mg/day, study day 36): −1.00
Mean (change in PANSS) Total Score from randomization ([6]; 10 mg/day, study day 43): −2.50
Mean (change in PANSS) Total Score from randomization ([6]; 10 mg/day, study day 50): −3.50
Mean (change in PANSS) Total Score from randomization ([6]; 10 mg/day, study day 57): −5.80
Mean (change in PANSS) Total Score from randomization ([6]; 20 mg/week, study day 29): 0.00
Mean (change in PANSS) Total Score from randomization ([6]; 20 mg/week, study day 36): 0.80
Mean (change in PANSS) Total Score from randomization ([6]; 20 mg/week, study day 43): −2.00
Mean (change in PANSS) Total Score from randomization ([6]; 20 mg/week, study day 50): −1.22
Mean (change in PANSS) Total Score from randomization ([6]; 20 mg/week, study day 57): −4.38
Mean (change in PANSS) Total Score from randomization ([6]; 30 mg/week, study day 29): 1.09
Mean (change in PANSS) Total Score from randomization ([6]; 30 mg/week, study day 36): 0.50
Mean (change in PANSS) Total Score from randomization ([6]; 30 mg/week, study day 43): 4.00
Mean (change in PANSS) Total Score from randomization ([6]; 30 mg/week, study day 50): −4.14
Mean (change in PANSS) Total Score from randomization ([6]; 30 mg/week, study day 57): −5.43
Mean (change in PANSS) Total Score from randomization ([6]; 45 mg/week, study day 29): 0.40
Mean (change in PANSS) Total Score from randomization ([6]; 45 mg/week, study day 36): −3.50
Mean (change in PANSS) Total Score from randomization ([6]; 45 mg/week, study day 43): −5.70
Mean (change in PANSS) Total Score from randomization ([6]; 45 mg/week, study day 50): −8.00
Mean (change in PANSS) Total Score from randomization ([6]; 45 mg/week, study day 57): −6.88
reduction in PANSS Total Score compared with daily dose of 10 mg/day ([6]; once weekly, 20 mg/week to 45 mg/week, in particular 30 and 45 mg/week): as effective in reduction in PANSS Total Score as a daily dose of 10 mg/day
reduction of PANSS Total Score compared with daily dose of 10 mg/day ([6]; once weekly, between about 30 mg/week and about 45 mg/week): at least to the same extend as a daily dose of 10 mg/day
